Key:
[1] = test system: arachidonic acid induced ear swelling; test: Topical arachidonic acid induced ear swelling model in mice; assay type: in vivo; settings: 30 min before and 15 min after challenge, at 90 minutes
Method: Purified 3-methanesulfonylpropionitrile (MSPN, prepared according to Example 2) was dissolved in vehicle (ethanol/acetone 1:1) to 5% (w/v). The active compound, indomethacin (positive control in vehicle), and vehicle were evaluated for anti-inflammatory activity in the topical arachidonic acid induced ear swelling model in mice.
Male ICR derived mice weighing 22±2 g were used in this experiment. 5 mice were used for each group (active compound, positive control, and vehicle). All animals were maintained in a controlled temperature (22-24° C.) and humidity (60%-70%) environment with 12-hour light/dark cycles for at least one week prior to use.
Arachidonic acid (2 mg in 20 μL acetone) was applied topically onto the anterior and posterior surfaces of the right ear of test animals to induce inflammation. MSPN in vehicle (20 μL), indomethacin (0.3 mg) in vehicle, and vehicle (20 μL) was each applied 30 minutes before and 15 minutes after arachidonic acid challenge. At 90 minutes after arachidonic acid induction of ear edema, the thickness of the right ear and the left ear was measured and the difference calculated as an indication of the inflammation in the right ear. Significant activity is defined as a reduction (inhibition) in arachidonic acid induced ear swelling by ≥30% relative to the vehicle-treated group.

IL-1β = test: In vitro cytokine release from human PBMCs: IL-1β; assay type: cell-based; settings: PBMC, lipopolysaccharide 50 pg/mL, 24 hours, read-out: inhibited the release of IL-1β
Method: (§1) 3-methanesulfonylpropionitrile (MSPN, prepared according to Example 1 was tested for its effects on in vitro cytokine release from human peripheral blood mononuclear cells (PBMCs). Secretion of cytokines by PBMCs plays a significant role in the inflammatory response.
(§2) MSPN was added to cultures of fresh human PBMCs at 162 μM (22 μg/mL) in duplicate. One hour later, PBMCs were stimulated to secrete cytokines using the mitogens lipopolysaccharide and concanavalin A (ConA). Lipopolysaccharide at 50 pg/mL was used to stimulate the release of interleukin IL-1β, IL-6 and tumor necrosis factor TNFα. ConA at 20 μg/mL was used to stimulate the release of IL-4 and ConA at 5 μg/mL was used to stimulate interferon IFNγ. The corticosteroid dexamethasone (100 nM) was used as a positive control. After 24 hours of incubation, the supernatants were assayed for the cytokines using the Luminex Bead kit. MSPN at 22 μg/mL inhibited the release of IL-1β, IL-6, TNFα, IL-4 and IFNγ by 95%, 98%, 98%, 7% and 21%, respectively. Dexamethasone inhibited the release of IL-1β, IL-6, TNFα, IL-4 and IFNγ by 24%, 60%, 42%, 93% and 87%, respectively.

IL-6 = test: In vitro cytokine release from human PBMCs: IL-6; assay type: cell-based; settings: PBMC, lipopolysaccharide 50 pg/mL, 24 hours, read-out: inhibited the release of IL-6
Method: as §1, §2

TNFα = test: In vitro cytokine release from human PBMCs: TNFα; assay type: cell-based; settings: PBMC, lipopolysaccharide 50 pg/mL, 24 hours, read-out: inhibited the release of TNFα
Method: as §1, §2

IL-4 = test: In vitro cytokine release from human PBMCs: IL-4; assay type: cell-based; settings: PBMC, ConA 20 μg/mL, 24 hours, read-out: inhibited the release of IL-4
Method: as §1, §2

IFNγ = test: In vitro cytokine release from human PBMCs: IFNγ; assay type: cell-based; settings: PBMC, ConA 5 μg/mL, 24 hours, read-out: inhibited the release of IFNγ
Method: as §1, §2

[2] = Systemic (plasma) exposure of MSPN after oral and subcutaneous administration to rats; assay type: in vivo; settings: after both the oral and subcutaneous routes
Method: This study was done to determine the systemic (plasma) exposure of MSPN after administration by the oral and subcutaneous routes to rats.
MSPN substance was prepared in water for oral administration and in saline for subcutaneous administration. Rats weighed 282 to 295 g were used in the study. Male rats (n=2) were given a single dose at 50, 160 or 500 mg/kg by both oral and subcutaneous routes. Female rats (n=2) were dosed only at 500 mg/kg by both oral and subcutaneous routes. The blood was drawn from each rat at 0.25, 1, 2, 3, 4, 6, 12, 24, and 48 hours and measured for MSPN concentration by LC/MS/MS.

[3] = Oral systemic toxicity administration in rats; assay type: in vivo
[4] = Oral systemic toxicity administration in dogs; assay type: in vivo
[5] = Storage stability of the isolated product at room temperature; assay type: physicochemical; settings: oil or solid form, enclosed vessel, room temperature (22-28° C.)
Text: In a preferred embodiment, the water-immiscible organic solvent is ethyl acetate. After the aqueous phase is removed, the ethyl acetate solvent is removed from the product by any means known to a person skilled in the art. For example, the ethyl acetate solvent can be removed by evaporation such as rotary evaporation or drying under nitrogen gas. After the ethyl acetate solvent is removed, the product 3-methanesulfonylpropionitrile is obtained in an oil form or in a solid form, which is stored in an enclosed vessel (such as a capped vial or bottle) and is stable for at least 1-3 months at room temperature (22-28° C.).

Question: With `COc1ccc2c(c1)c(CC(=O)O)c(C)n2C(=O)c1ccc(Cl)cc1` [indomethacin, reference compound] as the compound, how does the “decrease in the ear swelling induced by arachidonic acid relative to vehicle-treated group” value ([1]; 0.3 mg in vehicle topical) read?
Answer: Its value is 60%.

Question: Which inhibition at 0.1 µM (IL-1β; dexamethasone 100 nM) does the source give for `C[C@@H]1C[C@H]2[C@@H]3CCC4=CC(=O)C=C[C@]4(C)[C@@]3(F)[C@@H](O)C[C@]2(C)[C@@]1(O)C(=O)CO` [Dexamethasone, dexamethasone, reference compound] here?
Answer: Its inhibition at 0.1 µM is 24%.

Question: What about the inhibition at 0.1 µM (IL-6; dexamethasone 100 nM) of the same compound?
Answer: Its inhibition at 0.1 µM is 60%.

Question: And the inhibition at 0.1 µM (TNFα; dexamethasone 100 nM)?
Answer: The inhibition at 0.1 µM was 42%.

Question: What about the inhibition at 0.1 µM (IL-4; dexamethasone 100 nM) of the same compound?
Answer: Its inhibition at 0.1 µM is 93%.

Question: What about the inhibition at 0.1 µM (IFNγ; dexamethasone 100 nM) of the same compound?
Answer: Its inhibition at 0.1 µM is 87%.

Question: With `CS(=O)(=O)CCC#N` [MSPN, 3-methanesulfonylpropionitrile] as the compound, how does the inhibition at 162 µM (IL-1β; MSPN at 22 μg/mL (162 μM)) read?
Answer: Its inhibition at 162 µM is 95%.

Question: And the inhibition at 162 µM (IL-6; MSPN at 22 μg/mL (162 μM))?
Answer: The inhibition at 162 µM was 98%.

Question: And the inhibition at 162 µM (TNFα; MSPN at 22 μg/mL (162 μM))?
Answer: Its inhibition at 162 µM is 98%.

Question: And the inhibition at 162 µM (IL-4; MSPN at 22 μg/mL (162 μM))?
Answer: The inhibition at 162 µM was 7%.

Question: What about the inhibition at 162 µM (IFNγ; MSPN at 22 μg/mL (162 μM)) of the same compound?
Answer: Its inhibition at 162 µM is 21%.

Question: And the “decrease in the ear swelling induced by arachidonic acid relative to vehicle-treated group” value ([1]; 5% (w/v) in ethanol/acetone 1:1, 20 μL topical)?
Answer: The value was 31%.

Question: What about the bioavailability [2] of the same compound?
Answer: The bioavailability was “significant bioavailability”.

Question: And the “effects seen after oral, systemic toxicity administration” value ([3]; rat, in vivo, po)?
Answer: Its value is “mild physiological effects including decreased body temperature, decreased respiratory rate, increased blood pressure and increased heart rate”.

Question: What about the “doses at which effects were seen, above expected human therapeutic doses” value ([3]; rats, oral) of the same compound?
Answer: Its value is “over 2000 fold”.

Question: What about the “effects seen after oral, systemic toxicity administration” value ([4]; dog, in vivo, po) of the same compound?
Answer: The value was “mild physiological effects including decreased body temperature, decreased respiratory rate, increased blood pressure and increased heart rate”.

Question: What about the “doses at which effects were seen, above expected human therapeutic doses” value ([4]; dogs, oral) of the same compound?
Answer: Its value is “over 2000 fold”.

Question: What about the stable on storage [5] of the same compound?
Answer: The stable on storage was 1-3 months.

Source: US11229620B2, “3-methanesulfonylpropionitrile for treating inflammation and/or pain” (OLATEC THERAPEUTICS LLC, priority 2010, dated 2022)
